Where two headings read alike, the source gives them in different places.

The subject of one test is SKOV-3 cells. In words: Cell proliferation (MTT) assay. Conditions: for IC50: Homo sapiens, 0.1 nM–10 µM, medium with 2% BCS, mean ± spread, Con-3 and mitoxantrone n = 3 experiments, Con-7 n = five. Type of test: cell-based, human. Here is the method:
The antiproliferative effects of GnRH-mitoxantrone conjugates, Con-3, and Con-7, were evaluated using the SKOV-3 cells. The Con-3 and Con-7 conjugates decreased the proliferation rate of SKOV-3 cells in a dose-dependent manner on days 2, 3, and 4 (Figure 3A–C).
Figure 3 Antiproliferative activity of the GnRH analogs. Decrease in the proliferation rate of the SKOV3 cells after their treatment with increasing concentrations of Con-3, Con-7, Con-P1 or Con-P2 for 2 days (A), 3 days (B) and 4 days (C) at 37 °C. At the end of the incubation, the cells were further incubated with 0.5 mg/mL MTT for 4 h at room temperature and the formed purple formazan crystals were quantified by measuring absorbance at 594 nm. The means ± S.E (triplicate determination) are shown from a representative experiment performed 3 times with similar results. The proliferation rates of cells treated with 1 μΜ of GnRH analogs were used to plot the graph D which depicts the decrease in cell growth over the incubation time (D). Statistical analysis was performed using one-way ANOVA.
At the end of the incubation, the cells were further incubated with 0.5 mg/mL MTT for 4 h at room temperature and the formed purple formazan crystals were quantified by measuring absorbance at 594 nm. The means ± S.E (triplicate determination) are shown from a representative experiment performed 3 times with similar results. […] Statistical analysis was performed using one-way ANOVA.
SKOV-3 cells (kindly provided by Prof. Dimitrios Mavroudis, University of Crete) were seeded into 96-well plates at a density of 6000 cells/well, in triplicates, and incubated overnight in Dulbecco’s modified Eagle’s medium/F12 (DMEM/F12) (1:1), containing 3.15 g/L glucose and 10% bovine calf serum (BCS, HyClone), at 37 °C and 5% CO2. At the end of the incubation, the culture medium was replaced with a fresh one containing 3.15 g/L glucose and 2% BCS, with or without increasing concentrations of GnRH analogs or mitoxantrone (0.1 nM–10 µM), and the cells were further incubated at 37 °C and 5% CO2 for 2, 3 and 4 days. Subsequently, (3-(4,5-dimethylthiazol-2-yl)-2,5- diphenyl tetrazolium bromide) (MTT) was added at a final concentration of 0.5 mg/mL, and the mixtures were incubated for 4 h at room temperature in the dark, allowing the viable cells to reduce the MTT to formazan crystals. The supernatants were removed, and the purple formazan crystals were dissolved in isopropanol containing 4% HCl (100 μL/well) by mixing thoroughly for 30 min in the dark, before the quantification of the absorbance at 594 nm using a Dynatech MicroElisa reader (Chantilly, VA, USA). The percentage of the proliferation rate (% proliferation rate) treated with a GnRH analog was determined based on the following equation: % proliferation rate = (absorbance of cells treated with a GnRH analog/absorbance of untreated cells) × 100. The % viability of the untreated cells (control) was defined as 100%. The % viabilities were analyzed by nonlinear regression analysis, using Prism 8.0 (GraphPad Software, Prism 8.0, San Diego, CA, USA).

The next test addresses T1, human GnRH-R (Homo sapiens, UniProt P30968).
T1 construct: host or cells: HEK293 (ATCC CRL-1573)
T1 sequence (P30968 1-328): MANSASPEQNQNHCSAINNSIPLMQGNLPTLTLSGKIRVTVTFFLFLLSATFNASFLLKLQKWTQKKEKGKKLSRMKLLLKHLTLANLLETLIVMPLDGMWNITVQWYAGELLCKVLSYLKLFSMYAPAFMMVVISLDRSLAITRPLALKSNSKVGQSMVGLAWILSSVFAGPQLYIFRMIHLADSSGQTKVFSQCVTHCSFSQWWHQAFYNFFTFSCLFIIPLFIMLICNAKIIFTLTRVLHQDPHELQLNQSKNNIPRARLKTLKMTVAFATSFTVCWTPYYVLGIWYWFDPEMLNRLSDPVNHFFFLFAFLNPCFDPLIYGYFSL
The test can be described thus: Calcium-based (fura-2) kinetic assay of GnRH-R agonism. Type of test: cell-based. Conditions: HEK293 cells transfected with human GnRH-R; fura-2.

Experimental for human GnRH-R: For this purpose, fura-2-based kinetic assays to monitor the [Ca^2+] were performed in real-time using suspensions of HEK293 cells transiently transfected with the human GnRH-R (Figure 2A–I).
HEK293 cells transfected with the human GnRH-R served as a platform with which to test for agonist actions of individual test compounds. These cells were loaded with the ratiometric Ca^2+ indicator fura-2 so that the change in intracellular [Ca^2+] in response to agonist stimulation could be monitored in real time in a 96-well format. For these assays, the individual test compounds were administered at the 100 s time point.
Two days post-transfection, the HEK293 cells were harvested via trypsinization to obtain single-cell suspensions that were plated at 80% density on rat tail collagen-coated 96-well Costar 3904 plates for loading with the ratiometric Ca^2+ indicator fura-2. Measurements of the intracellular [Ca^2+] were performed using a Flexstation 3 microplate reader (Molecular Devices, Sunnyvale, CA, USA). Briefly, test solutions containing GnRH-R agonists were administered to individual wells of a 96-well plate using the automated pipetting feature of the Flexstation under computer control. […] Emitted light was detected at 505/15 nm, and the ratio of emission light intensity due to excitation at 335/9 and 375/9 nm was calculated. […]

For the molecule `CCNC(=O)[C@@H]1CCCN1C(=O)[C@H](CCCNC(=N)N)NC(=O)[C@H](CC(C)C)NC(=O)[C@@H](CSSCCC(=O)OCCNCCNc1ccc(NCCNCCO)c2c1C(=O)c1c(O)ccc(O)c1C2=O)NC(=O)[C@H](Cc1ccc(O)cc1)NC(=O)[C@H](CO)NC(=O)[C@H](Cc1c[nH]c2ccccc12)NC(=O)[C@H](Cc1c[nH]cn1)NC(=O)[C@@H]1CCC(=O)N1` [Con-3], the “percentage of the proliferation rate” value in the test on SKOV-3 cells (1 μΜ, two days of treatment, untreated cells = 100%) turned out to be 64.4%.
Take `O=C1c2c(O)ccc(O)c2C(=O)c2c(NCCNCCO)ccc(NCCNCCO)c21` [mitoxantrone]: the “GnRH-R agonist action (Ca2+ elevation), in words” value at human GnRH-R was “without effect”. For the same molecule, the IC50 came to 480 ± 210 nM with SKOV-3 cells (SK-OV-3, 48 h, 2 days at 37 °C, read-out: IC50, proliferation of SKOV-3 cells, day 2); 420 ± 90 nM in the test with SKOV-3 cells (SK-OV-3, 72 h, 3 days at 37 °C, read-out: IC50, proliferation of SKOV-3 cells, day 3); 280 ± 60 nM in the test on SKOV-3 cells (SK-OV-3, 96 h, 4 days at 37 °C, read-out: IC50, proliferation of SKOV-3 cells, day 4).

(Values after article PMC11397358, “Cytotoxic Activity of Novel GnRH Analogs Conjugated with Mitoxantrone in Ovarian Cancer Cells” (Molecules, 2024).)
